Results as given in ChEMBL document CHEMBL1146341, “Synthesis and in vivo evaluation of [18F]-4-[5-(4-methylphenyl)-3-(trifluoromethyl)-1H-pyrazol-1-yl]benzenesulfonamide as a PET imaging probe for COX-2 expression” (Bioorg Med Chem, 2007).

Columns and labels:
[1] = Ratio of drug uptake in skull to cingulate in baboon at 1.2 mCi after 115 mins; type: ADME; details: papio hamadryas, in vivo
[2] = Ratio of drug uptake in skull to caudate in baboon at 1.2 mCi after 115 mins; type: ADME; details: papio hamadryas, in vivo
[3] = Drug level in baboon plasma assessed as unmetabolized fractions after 12 mins; type: ADME, cell-free; details: papio hamadryas, read-out: Activity
[4] = Drug level in baboon plasma assessed as unmetabolized fractions after 4 mins; type: ADME, cell-free; details: papio hamadryas, read-out: Activity
[5] = Ratio of drug uptake in skull to putamen in baboon at 1.2 mCi after 115 mins; type: ADME; details: papio hamadryas, in vivo
[6] = Ratio of drug uptake in skeleton to brain in Sprague-Dawley rat at 0.2 mCi, iv after 112 mins; type: ADME, organism-based; details: in vivo
[7] = Ratio of drug uptake in skeleton to cerebellum in Sprague-Dawley rat at 0.2 mCi, iv after 112 mins; type: ADME, organism-based; details: in vivo
[8] = Ratio of drug uptake in skull to hippocampus in baboon at 1.2 mCi after 115 mins; type: ADME, tissue-based; details: papio hamadryas, in vivo
[9] = Drug level in baboon plasma assessed as unmetabolized fractions after 30 mins; type: ADME, cell-free; details: papio hamadryas, read-out: Activity
[10] = Drug level in baboon plasma assessed as unmetabolized fractions after 60 mins; type: ADME, cell-free; details: papio hamadryas, read-out: Activity
[11] = Ratio of drug uptake in skull to cerebellum in baboon at 1.2 mCi after 115 mins; type: ADME, tissue-based; details: papio hamadryas, in vivo
[12] = Ratio of drug uptake in skull to thalamus in baboon at 1.2 mCi after 115 mins; type: ADME, tissue-based; details: papio hamadryas, in vivo
[13] = Ratio of drug uptake in skeleton to heart in Sprague-Dawley rat at 0.2 mCi, iv after 112 mins; type: ADME, organism-based; details: in vivo
[14] = Drug level in baboon plasma assessed as unmetabolized fractions after 2 mins; type: ADME, cell-free; details: papio hamadryas, read-out: Activity

Compound: Cc1ccc(-c2cc(C(F)(F)[18F])nn2-c2ccc(S(N)(=O)=O)cc2)cc1
- Ratio [1]: 1.43
- Ratio [2]: 1.48
- remaining at 0.2 h [3]: 47.5%
- remaining at 4 min [4]: 84.9%
- Ratio [5]: 1.46
- Ratio [6]: 0.45
- Ratio [7]: 0.5
- Ratio [8]: 1.41
- remaining at 0.5 h [9]: 30.2%
- remaining at 1 h [10]: 17%
- Ratio [11]: 1.2
- Ratio [12]: 1.6
- Ratio [13]: 0.7
- remaining at 2 min [14]: 93.2%
